Experimental data published in paper PMC10303271, “Synthesis and Receptor Binding Studies of α5 GABAAR Selective Novel Imidazodiazepines Targeted for Psychiatric and Cognitive Disorders” (Molecules, 2023).

What was measured:
M4 D = biological target: T1, M4 D (Homo sapiens, UniProt P08173, A203G/Y113C); assay: PDSP primary binding M4 D; details: primary binding, 10,000 nM; last figure of the line = mean of the 4 before it; read-out: M4 D, PDSP raw data, mean
T1 construct: purchased NIMH Psychoactive Drug Screening Program (PDSP)
T1 sequence (P08173 1-479 Y113C/A203G): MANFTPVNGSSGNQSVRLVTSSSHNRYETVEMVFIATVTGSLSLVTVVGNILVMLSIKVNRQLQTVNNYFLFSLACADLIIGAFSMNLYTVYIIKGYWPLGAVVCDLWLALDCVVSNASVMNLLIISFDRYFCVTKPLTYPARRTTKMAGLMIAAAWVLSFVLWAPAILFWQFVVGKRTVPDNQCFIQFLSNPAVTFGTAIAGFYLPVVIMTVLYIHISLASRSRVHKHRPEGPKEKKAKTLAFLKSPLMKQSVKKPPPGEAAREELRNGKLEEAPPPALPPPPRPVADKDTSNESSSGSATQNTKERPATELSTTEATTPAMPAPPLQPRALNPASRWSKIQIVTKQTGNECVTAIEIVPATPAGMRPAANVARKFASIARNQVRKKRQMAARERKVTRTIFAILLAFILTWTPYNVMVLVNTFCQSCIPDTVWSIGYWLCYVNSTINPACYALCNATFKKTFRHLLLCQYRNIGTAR
Method: (§1) To determine if any off-target receptor-binding effects are present, all the novel ligands were sent to the National Institute of Mental Health (NIMH), Psychoactive Drug Screening Program (PDSP). The ligands were screened over a panel of 47 receptors, ion channels, and transporters to determine any other possible interactions with […]. The hERG-binding was also determined. […] No binding of the test compounds to calcium channels was observed. […] It is necessary to screen the compounds for hERG-binding during the early process of drug discovery. The unintentional binding of many drugs to hERG can cause blockade of hERG K+ channels in the heart, which can cause many side effects including cardiac arrhythmias and sudden death. […] All of the α5 imidazodiazepines were tested for hERG-binding.
(§2) The NIMH PDSP assay protocol book [https://kidbdev.med.unc.edu/databases/PDSP%20Protocols%20II%202013-03-28.pdf accessed on 23 April 2023]. describes the protocols for primary and secondary radio-ligand binding assays. These assays were carried out in a final volume of 125 µL per well in the appropriate binding buffer.
(§3) The binding of a ligand to a receptor, ion channel, or transporter was determined in the […] of 10 µM of the appropriate reference compound. […] Plates were incubated in the dark for 90 min at rt, and the reactions were stopped by vacuum filtration onto 0.3% polyethyleneimine (PEI) soaked 96-well filter mats using a 96-well Filtermateharvester. This was followed by three washes with cold PBS buffer. Radioactivity was then counted on a Microbeta counter. Nonlinear regression was used to analyze the data with N = 6 replicates.

NTS1 = biological target: T2, NTS1 (Homo sapiens, UniProt P30989); assay: PDSP primary binding NTS1; details: primary binding, 10,000 nM; last figure of the line = mean of the 4 before it; read-out: NTS1, PDSP raw data, mean
T2 construct: purchased NIMH Psychoactive Drug Screening Program (PDSP)
T2 sequence (P30989 whole entry): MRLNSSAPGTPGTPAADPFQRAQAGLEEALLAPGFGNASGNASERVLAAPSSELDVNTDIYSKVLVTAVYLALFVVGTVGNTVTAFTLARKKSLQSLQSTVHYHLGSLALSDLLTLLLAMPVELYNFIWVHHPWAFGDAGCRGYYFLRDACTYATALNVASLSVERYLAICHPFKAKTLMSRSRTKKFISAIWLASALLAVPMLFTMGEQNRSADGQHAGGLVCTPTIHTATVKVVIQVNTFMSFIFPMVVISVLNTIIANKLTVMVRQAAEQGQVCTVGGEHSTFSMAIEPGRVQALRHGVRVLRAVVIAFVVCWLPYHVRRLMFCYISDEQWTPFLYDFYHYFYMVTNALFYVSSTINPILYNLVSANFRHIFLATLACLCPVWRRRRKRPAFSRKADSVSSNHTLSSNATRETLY
Method: as §1, §2, §3

Alpha3Beta4 = biological target: T3, Alpha3Beta4 (Rattus norvegicus, UniProt P04757+P12392); assay: PDSP primary binding Alpha3Beta4; details: primary binding, 10,000 nM; last figure of the line = mean of the 4 before it; read-out: Alpha3Beta4, PDSP raw data, mean
T3 construct: purchased NIMH Psychoactive Drug Screening Program (PDSP)
T3 sequence (P04757 26-499): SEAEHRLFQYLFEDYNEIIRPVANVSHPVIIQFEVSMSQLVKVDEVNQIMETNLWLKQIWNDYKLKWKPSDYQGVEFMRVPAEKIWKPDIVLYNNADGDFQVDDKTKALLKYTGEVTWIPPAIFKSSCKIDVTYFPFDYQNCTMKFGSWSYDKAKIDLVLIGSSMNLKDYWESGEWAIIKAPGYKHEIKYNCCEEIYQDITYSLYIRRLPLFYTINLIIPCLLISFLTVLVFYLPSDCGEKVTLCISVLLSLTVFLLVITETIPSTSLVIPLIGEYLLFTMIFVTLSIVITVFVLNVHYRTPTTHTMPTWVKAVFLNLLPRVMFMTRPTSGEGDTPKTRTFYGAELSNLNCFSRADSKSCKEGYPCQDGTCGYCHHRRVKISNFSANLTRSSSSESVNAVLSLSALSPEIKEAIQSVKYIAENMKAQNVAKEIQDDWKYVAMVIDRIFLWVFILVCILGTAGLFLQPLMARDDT
T3 sequence (P12392 21-495): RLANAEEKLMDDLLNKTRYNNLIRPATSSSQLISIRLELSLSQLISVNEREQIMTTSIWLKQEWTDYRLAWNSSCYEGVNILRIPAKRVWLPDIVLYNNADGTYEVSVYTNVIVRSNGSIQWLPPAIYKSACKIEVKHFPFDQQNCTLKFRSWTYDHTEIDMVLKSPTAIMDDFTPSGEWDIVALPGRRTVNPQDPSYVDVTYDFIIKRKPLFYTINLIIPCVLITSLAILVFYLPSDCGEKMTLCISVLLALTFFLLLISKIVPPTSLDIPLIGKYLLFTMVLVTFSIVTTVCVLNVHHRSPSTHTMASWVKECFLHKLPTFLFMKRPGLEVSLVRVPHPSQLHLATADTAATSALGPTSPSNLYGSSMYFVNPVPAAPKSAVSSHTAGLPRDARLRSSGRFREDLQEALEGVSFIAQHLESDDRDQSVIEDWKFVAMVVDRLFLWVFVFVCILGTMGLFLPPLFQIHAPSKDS
Method: as §1, §2, §3

H3 = biological target: T4, H3 (Homo sapiens, UniProt Q9Y5N1); assay: PDSP primary binding H3; details: primary binding, 10,000 nM; last figure of the line = mean of the 4 before it; read-out: H3, PDSP raw data, mean
T4 construct: purchased NIMH Psychoactive Drug Screening Program (PDSP)
T4 sequence (Q9Y5N1 whole entry): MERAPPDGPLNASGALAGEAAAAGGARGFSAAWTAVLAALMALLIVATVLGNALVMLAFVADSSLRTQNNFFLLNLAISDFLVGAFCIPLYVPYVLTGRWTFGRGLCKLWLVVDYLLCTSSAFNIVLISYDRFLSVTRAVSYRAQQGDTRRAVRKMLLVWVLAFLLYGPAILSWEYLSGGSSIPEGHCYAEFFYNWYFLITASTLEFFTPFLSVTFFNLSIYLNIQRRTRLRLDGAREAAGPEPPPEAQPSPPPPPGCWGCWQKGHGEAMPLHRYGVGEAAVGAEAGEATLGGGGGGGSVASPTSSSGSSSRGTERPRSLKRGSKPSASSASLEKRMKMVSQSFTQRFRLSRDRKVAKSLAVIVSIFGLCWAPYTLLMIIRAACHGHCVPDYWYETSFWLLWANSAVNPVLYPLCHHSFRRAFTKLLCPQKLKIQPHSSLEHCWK
Method: as §1, §2, §3

BZP rat brain site = assay: PDSP binding at BZP rat brain site; details: for Ki: N = 2, read-out: Binding Affinity BZR Secondary Screening Ki; for Ki / Binding Affinity BZR % Inhibition (Primary): rat brain; for Binding Affinity BZR % Inhibition (Primary): at 10,000 nM, N = 5; for BZP Rat Brain Site, PDSP raw data, mean: primary binding, 10,000 nM, last figure of the line = mean of the 4 before it
Method: The BZR binding affinity of the test compounds was also measured using rat brain BzR. […] The efficacy of imidazodiazepines on the benzodiazepine receptor depends on various factors, including the specific subtype of the receptor they bind to, their chemical structure, and the dose.
as §2, §3

V2 = biological target: T5, V2 (Homo sapiens, UniProt P30518); assay: PDSP primary binding V2; details: primary binding, 10,000 nM; last figure of the line = mean of the 4 before it; read-out: V2, PDSP raw data, mean
T5 construct: purchased NIMH Psychoactive Drug Screening Program (PDSP)
T5 sequence (P30518 whole entry): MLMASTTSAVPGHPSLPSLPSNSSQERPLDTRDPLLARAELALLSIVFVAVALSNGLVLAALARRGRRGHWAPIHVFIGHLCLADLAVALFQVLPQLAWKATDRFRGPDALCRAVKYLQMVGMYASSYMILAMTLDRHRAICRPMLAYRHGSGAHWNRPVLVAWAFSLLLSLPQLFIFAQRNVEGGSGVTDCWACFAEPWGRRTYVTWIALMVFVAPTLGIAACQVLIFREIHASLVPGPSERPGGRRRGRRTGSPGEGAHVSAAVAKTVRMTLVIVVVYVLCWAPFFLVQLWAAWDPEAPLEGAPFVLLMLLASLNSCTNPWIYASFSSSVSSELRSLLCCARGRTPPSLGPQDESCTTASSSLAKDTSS
Method: as §1, §2, §3

H1 = biological target: T6, H1 (Homo sapiens, UniProt P35367); assay: PDSP primary binding H1; details: primary binding, 10,000 nM; last figure of the line = mean of the 4 before it; read-out: H1, PDSP raw data, mean
T6 construct: purchased NIMH Psychoactive Drug Screening Program (PDSP)
T6 sequence (P35367 whole entry): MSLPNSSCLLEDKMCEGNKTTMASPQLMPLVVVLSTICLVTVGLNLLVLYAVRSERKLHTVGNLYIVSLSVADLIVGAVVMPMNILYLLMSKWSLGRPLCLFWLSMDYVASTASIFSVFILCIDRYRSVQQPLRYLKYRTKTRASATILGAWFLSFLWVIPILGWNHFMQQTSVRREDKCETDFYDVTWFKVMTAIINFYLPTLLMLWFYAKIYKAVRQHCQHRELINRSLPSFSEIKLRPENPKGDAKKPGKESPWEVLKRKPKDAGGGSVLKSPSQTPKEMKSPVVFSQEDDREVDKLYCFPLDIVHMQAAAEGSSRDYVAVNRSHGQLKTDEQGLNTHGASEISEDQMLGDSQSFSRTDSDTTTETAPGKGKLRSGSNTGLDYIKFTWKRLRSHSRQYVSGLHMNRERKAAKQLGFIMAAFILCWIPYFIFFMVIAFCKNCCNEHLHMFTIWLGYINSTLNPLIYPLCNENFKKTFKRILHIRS
Method: as §1, §2, §3

Alpha1D = biological target: T7, Alpha1D (Homo sapiens, UniProt P25100); assay: PDSP primary binding Alpha1D; details: 1.5 h; primary binding, 10,000 nM; last figure of the line = mean of the 4 before it; read-out: Alpha1D, PDSP raw data, mean
T7 construct: purchased NIMH Psychoactive Drug Screening Program (PDSP)
T7 sequence (P25100 1-572): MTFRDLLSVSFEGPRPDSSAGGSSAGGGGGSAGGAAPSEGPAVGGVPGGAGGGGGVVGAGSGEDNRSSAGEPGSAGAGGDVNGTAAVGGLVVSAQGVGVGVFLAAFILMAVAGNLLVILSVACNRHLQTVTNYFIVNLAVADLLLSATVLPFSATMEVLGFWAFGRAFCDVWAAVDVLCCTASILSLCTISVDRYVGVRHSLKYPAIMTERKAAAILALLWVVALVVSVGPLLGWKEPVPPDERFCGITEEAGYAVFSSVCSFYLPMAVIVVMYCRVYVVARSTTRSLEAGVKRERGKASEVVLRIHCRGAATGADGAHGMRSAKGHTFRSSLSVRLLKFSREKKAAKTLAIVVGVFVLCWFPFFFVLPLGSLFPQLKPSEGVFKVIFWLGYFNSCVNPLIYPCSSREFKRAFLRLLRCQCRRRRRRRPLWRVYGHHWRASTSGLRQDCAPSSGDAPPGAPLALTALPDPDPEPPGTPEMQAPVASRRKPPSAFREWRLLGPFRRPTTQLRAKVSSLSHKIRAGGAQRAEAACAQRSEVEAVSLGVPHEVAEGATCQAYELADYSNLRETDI
Method: as §1, §2, §3

Alpha4Beta2 = biological target: T8, Alpha4Beta2 (Rattus norvegicus, UniProt P09483+P12390); assay: PDSP primary binding Alpha4Beta2; details: primary binding, 10,000 nM; last figure of the line = mean of the 4 before it; read-out: Alpha4Beta2, PDSP raw data, mean
T8 construct: purchased NIMH Psychoactive Drug Screening Program (PDSP)
T8 sequence (P09483 31-630): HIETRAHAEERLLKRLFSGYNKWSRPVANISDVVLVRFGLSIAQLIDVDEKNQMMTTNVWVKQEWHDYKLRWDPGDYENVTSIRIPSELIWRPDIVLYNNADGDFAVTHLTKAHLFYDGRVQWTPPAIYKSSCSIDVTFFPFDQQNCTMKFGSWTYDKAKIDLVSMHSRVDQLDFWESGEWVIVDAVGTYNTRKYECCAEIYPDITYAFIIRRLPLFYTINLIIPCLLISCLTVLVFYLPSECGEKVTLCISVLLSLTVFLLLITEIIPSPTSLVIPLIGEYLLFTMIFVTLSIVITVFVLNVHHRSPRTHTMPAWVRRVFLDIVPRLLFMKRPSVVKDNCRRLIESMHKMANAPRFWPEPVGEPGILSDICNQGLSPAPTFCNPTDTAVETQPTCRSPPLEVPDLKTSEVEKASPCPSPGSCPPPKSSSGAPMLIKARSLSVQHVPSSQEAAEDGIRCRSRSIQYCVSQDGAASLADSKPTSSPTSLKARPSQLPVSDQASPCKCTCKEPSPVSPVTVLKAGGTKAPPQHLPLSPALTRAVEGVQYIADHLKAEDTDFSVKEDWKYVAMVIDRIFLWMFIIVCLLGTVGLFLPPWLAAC
T8 sequence (P12390 25-500): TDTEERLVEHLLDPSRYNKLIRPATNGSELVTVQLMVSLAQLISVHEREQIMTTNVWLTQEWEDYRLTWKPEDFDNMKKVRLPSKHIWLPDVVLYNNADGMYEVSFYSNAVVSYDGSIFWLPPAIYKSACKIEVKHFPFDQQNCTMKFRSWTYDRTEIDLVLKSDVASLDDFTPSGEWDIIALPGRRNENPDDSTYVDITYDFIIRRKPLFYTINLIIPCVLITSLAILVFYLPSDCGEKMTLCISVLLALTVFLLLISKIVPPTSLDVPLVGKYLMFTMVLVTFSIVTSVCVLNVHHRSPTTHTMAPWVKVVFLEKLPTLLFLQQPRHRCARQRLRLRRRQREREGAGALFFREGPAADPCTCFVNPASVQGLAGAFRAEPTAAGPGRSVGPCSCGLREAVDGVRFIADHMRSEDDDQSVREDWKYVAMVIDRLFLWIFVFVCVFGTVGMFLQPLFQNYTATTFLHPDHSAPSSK
Method: as §1, §2, §3

HCA2 = biological target: T9, HCA2 (Homo sapiens, UniProt Q8TDS4); assay: PDSP primary binding HCA2; details: primary binding, 10,000 nM; last figure of the line = mean of the 4 before it; read-out: HCA2, PDSP raw data, mean
T9 construct: purchased NIMH Psychoactive Drug Screening Program (PDSP)
T9 sequence (Q8TDS4 whole entry): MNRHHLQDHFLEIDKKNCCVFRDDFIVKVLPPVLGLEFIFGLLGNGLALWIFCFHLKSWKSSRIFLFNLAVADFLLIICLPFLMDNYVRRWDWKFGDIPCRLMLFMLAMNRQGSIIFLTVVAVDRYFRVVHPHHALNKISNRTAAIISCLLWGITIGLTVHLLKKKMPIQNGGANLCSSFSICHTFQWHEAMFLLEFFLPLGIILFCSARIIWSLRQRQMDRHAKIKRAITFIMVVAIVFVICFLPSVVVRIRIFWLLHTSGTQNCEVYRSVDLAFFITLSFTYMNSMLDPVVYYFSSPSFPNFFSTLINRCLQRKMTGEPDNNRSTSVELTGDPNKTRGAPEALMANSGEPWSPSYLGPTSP
Method: as §1, §2, §3

Row | Structure (SMILES) | inhibition at 10 µM (M4 D) [%] | inhibition at 10 µM (NTS1) [%] | inhibition at 10 µM (Alpha3Beta4) [%] | inhibition at 10 µM (H3) [%] | Ki (BZP rat brain site) [nM] | Binding Affinity BZR % Inhibition (Primary) (BZP rat brain site) [%] | inhibition at 10 µM (V2) [%] | inhibition at 10 µM (H1) [%] | inhibition at 10 µM (Alpha1D) [%] | inhibition at 10 µM (Alpha4Beta2) [%] | inhibition at 10 µM (HCA2) [%] | BZP Rat Brain Site, PDSP raw data, mean (BZP rat brain site) [%]
1 | C[C@H]1N=C(c2ccccc2F)c2cc(-c3ccccc3)ccc2-n2cnc(C(=O)N(C)C)c21 [Compound 5, (R)-6-(2′-Fluorophenyl)-N,N,4-trimethyl-8-phenyl-4H-benzo[f]imidazo[1,5-a][1,4]diazepine-3-carboxamide] | 27.2 | -16.7 | -0.77 | 5.94 | 123 ± 22.3 | 94.79 ± 1.08 | 19.7 | -10.4 | 3.57 | -1.65 | -9.82 | 
2 | C#Cc1ccc2c(c1)C(c1ccccc1Cl)=N[C@H](C)c1c(C(=O)NC)ncn1-2 [Compound 21, (R)-6-(2′-Chlorophenyl)-8-ethynyl-N,4-dimethyl-4H-benzo[f]imidazo[1,5-a][1,4]diazepine-3-carboxamide] | 1.13 | -25.2 | 11.3 | 4.81 | 77.7 ± 2.93 | 94.96 ± 2.06 | 43 | -9.7 | -5.53 | 4.88 | 35.7 | 
3 | C#Cc1ccc2c(c1)C(c1ccccn1)=N[C@@H](C)c1c(C(=O)NC)ncn1-2 [Compound 23, (S)-8-Ethynyl-N,4-dimethyl-6-(pyridin-2′-yl)-4H-benzo[f]imidazo[1,5-a][1,4]diazepine-3-carboxamide] | 50.5 | -5.89 | 1.99 | -12.8 | 1300 ± 394 | 52.97 ± 6.26 | 10.2 | -2.54 | -6.54 | -4.27 | 15.2 | 
4 | C#Cc1ccc2c(c1)C(c1ccccc1Cl)=N[C@H](C)c1c(C(=O)N(C)CC)ncn1-2 [Compound 29] | 46.2 | -19.5 | 0.02 | -29.5 | 394 ± 40.2 | 87.49 ± 2.75 | 21.9 | -1.99 | -11.9 | -1.16 | -26.3 | 
5 | C#Cc1ccc2c(c1)C(c1ccccn1)=N[C@@H](C)c1c(C(=O)N(C)C)ncn1-2 [Compound 31, (S)-8-Ethynyl-N,N,4-trimethyl-6-(pyridin-2′-yl)-4H-benzo[f]imidazo[1,5-a][1,4]diazepine-3-carboxamide] | 56.8 | 0.28 | -0.5 | -5.55 | 838 ± 107 | 83.57 ± 1.57 | 15.4 | -7.38 | -6.09 | -0.84 | 20.8 | 
6 | C#Cc1ccc2c(c1)C(c1ccccc1F)=N[C@H](C)c1c(C(=S)N(C)C)ncn1-2 [Compound 33, (R)-8-Ethynyl-6-(2′-fluorophenyl)-N,N,4-trimethyl-4H-benzo[f]imidazo[1,5-a][1,4]diazepine-3-carbothioamide] | 27.2 | -16.7 | -0.77 | 5.94 | 871 ± 8.72 |  | 19.7 | -10.4 | 3.57 | -1.65 | -9.82 | 94.79
7 | CCc1noc(-c2ncn3c2[C@@H](C)N=C(c2ccccc2F)c2cc(-c4ccccc4)ccc2-3)n1 [Compound 35, (R)-3-Ethyl-5-(6-(2′-fluorophenyl)-4-methyl-8-phenyl-4H-benzo[f]imidazo[1,5-a][1,4]diazepin-3-yl)-1,2,4-oxadiazole] | 15.7 | -32.6 | 12 | 4.89 |  | 19.91 ± 7.21 | 37.4 | 10.5 | -0.4 | 0.7 | -18.7 | 
8 | CCc1noc(-c2ncn3c2[C@@H](C)N=C(c2ccccc2F)c2cc(Cl)ccc2-3)n1 [Compound 36, (R)-5-(8-Chloro-6-(2′-fluorophenyl)-4-methyl-4H-benzo[f]imidazo[1,5-a][1,4]diazepin-3-yl)-3-ethyl-1,2,4-oxadiazole] | 26.6 | -16.9 | 15.6 | -0.81 | 590 ± 44.6 |  | 12.6 | 7.7 | -14.3 | -1.38 | -29.3 | 81.81
9 | CC(C)c1noc(-c2ncn3c2[C@@H](C)N=C(c2ccccc2F)c2cc(Cl)ccc2-3)n1 [Compound 37, (R)-5-(8-Chloro-6-(2′-fluorophenyl)-4-methyl-4H-benzo[f]imidazo[1,5-a][1,4]diazepin-3-yl)-3-isopropyl-1,2,4-oxadiazole] | -19.7 | -16.3 | 18.8 | 6.42 |  |  | -7.17 | 59 | 4.09 | 6.16 | 35.2 | 74.07
